Source: publication PMC12085125 (Drug Design, Development and Therapy, 2025)

Legend:
[1] = healthy male adults; cited from earlier work
[2] = test system: tofacitinib metabolism in rat liver microsomes (enzyme not specified); experiment: Inhibition of tofacitinib metabolism in rat liver microsomes; assay type: in vitro ADME; details: probe tofacitinib
[3] = cited from earlier work
[4] = test system: cytochrome P450 3A4 (CYP3A4); details: cited from earlier work
rat liver microsomes = details: metabolism to M8, n=3
[5] = test system: cytochrome P450 2C19 (CYP2C19); details: cited from earlier work
in vitro = details: Sprague-Dawley, rat, liver microsomes

| SMILES | IC50 at 30 min [2] [nM] | increase of AUC of tofacitinib when combined [1] [%] | increase of Cmax of tofacitinib when combined [1] [%] | further results |
| --- | --- | --- | --- | --- |
| OC(Cn1cncn1)(Cn1cncn1)c1ccc(F)cc1F [Fluconazole] |  | 79 | 27 |  |
| CC(=O)N1CCN(c2ccc(OCC3COC(Cn4ccnc4)(c4ccc(Cl)cc4Cl)O3)cc2)CC1 (stereo not drawn) [Ketoconazole] |  | 103 | 16 |  |
| C[C@@H]1CCN(C(=O)CC#N)C[C@@H]1N(C)c1ncnc2[nH]ccc12 [Tofacitinib] |  |  |  | share processed by CYP3A4 [4]: approximately 50%; Vmax of tofacitinib enzyme kinetics (rat liver microsomes): 5.482 pmol/min/mg; share processed by CYP2C19 [5]: ~20%; Km at 30 min (in vitro): 37.3 µM |

Continued, in another order:

| IC50 at 30 min [2] [nM] | SMILES | increase of AUC of tofacitinib when combined [1] [%] | increase of Cmax of tofacitinib when combined [1] [%] | further results |
| --- | --- | --- | --- | --- |
| 1140 | COc1ccc2c(c1)C(=O)N(CCc1ccc(S(=O)(=O)NC(=O)NC3CCCCC3)cc1)C(=O)C2(C)C [Gliquidone] |  |  | half-life ([3]; after oral administration): approximately 1.5 hours |
| 4060 | CC#CCn1c(N2CCC[C@@H](N)C2)nc2c1c(=O)n(Cc1nc(C)c3ccccc3n1)c(=O)n2C [Linagliptin] |  |  | bioavailability [3]: approximately 30% |
